Measured values published in US12326385B2, “Cell-permeable fluorogenic fluorophores” (MAX-PLANCK-GESELLSCHAFT ZUR FÖRDERUNG DER WISSENSCHAFTEN E. …, priority 2018, dated 2025).
Marks after values point to notes of the source that are not given here.

How the values were obtained:
F-actin in U2OS cells = assay: No-wash live-cell imaging of F-actin; type: cell-based
Source text: Fluorescent probes for live-cell imaging of cytoskeletal structures have become important tools in the life sciences. In particular, the far-red, SiR-based probes for F-actin (SiR-actin) and microtubules (SiR-tubulin) have become popular as they are fluorogenic and enable no-wash imaging with little background signal. SiR-actin and SiR-tubulin are based on SiR linked to the F-actin-binder jasplakinolide and microtubule-binder docetaxel, respectively. Binding to their targets shifts for both probes the equilibrium between the cell-permeable spirolactone and the fluorescent zwitterion towards the fluorescent form. To generate fluorescent stains for F-actin and microtubule in different colors, the inventors coupled jasplakinolide and docetaxel to 6-TAMRA and its N,N-dimethylsulfamide derivative (probes 169 and 172, named MaP555-actin and MaP555-tubulin in the following). […] The specificity of MaP555-actin and MaP555-tubulin was further confirmed by co-staining with SiR-actin and SiR-tubulin. […] Similarly, binding of MaP555-tubulin to microtubules caused a high increase in absorbance (5.8-fold) and fluorescence (11-fold).
In addition, the inventors coupled the acyl sulfonamide of carbopyronine to jasplakinolide, yielding the actin probe MaP618-actin (171).

F-actin = assay: In vitro absorbance and fluorescence response on binding to actin; type: biochemical; conditions: for ε: general actin buffer; for F/F0: ± s.e.m.; for increase in absorbance / increase in fluorescence intensity: upon binding to F-actin, in vitro
[1] = 0.2% SDS in general actin buffer
[2] = MaP618-actin, orange fluorescence

Row | Structure (SMILES) | live-cell staining of F-actin (F-actin in U2OS cells) | Φ (F-actin; [1]) | ε^SDS (F-actin; [1]) | λem (F-actin; [2]) [nm] | λex (F-actin; [2]) [nm] | Φ (F-actin; binding with actin) | ε^protein (F-actin; binding with actin) | λabs (F-actin; binding with actin) | λem (F-actin; binding with actin) | ε (F-actin) | fluorogenicity relative to SiR-actin (F-actin; incubation with F-actin) | F/F0 (F-actin; ratio of fluorescence intensities at 635 nm in the presence and absence of actin) | increase in absorbance (F-actin) [fold] | increase in fluorescence intensity (F-actin) [fold] | F/F0 (F-actin; ratio of fluorescence intensities at 580 nm in the presence and absence of actin)
1 | C/C1=C\CC[C@H](C)OC(=O)C[C@H](c2ccc(O)cc2)NC(=O)[C@@H](Cc2c[nH]c3ccccc23)N(C)C(=O)[C@H](CCCCNC(=O)CCCCCNC(=O)c2ccc3c(c2)C2(c4ccc(N(C)C)cc4C(C)(C)c4cc(N(C)C)ccc42)N(S(C)(=O)=O)C3=O)NC(=O)[C@@H](C)C1 [compound 171] | clearly reveal F-actin structures | 0.71 | 24,000^i M^−1cm^−1 | 635 | 618 | 0.78 | 61,000 M^−1cm^−1 | 618 | 635 | 500 M⁻¹ cm⁻¹ | about four times more fluorogenic | 449 ± 6.8^j | 122 | 449 | 
2 | C/C1=C\CC[C@H](C)OC(=O)C[C@H](c2ccc(O)cc2)NC(=O)[C@@H](Cc2c[nH]c3ccccc23)N(C)C(=O)[C@H](CCCCNC(=O)CCCCCNC(=O)c2ccc3c(c2)C2(c4ccc(N(C)C)cc4Oc4cc(N(C)C)ccc42)N(S(=O)(=O)N(C)C)C3=O)NC(=O)[C@@H](C)C1 [compound 169] | enabled no-wash, high-contrast staining | 0.49 | 103,000 M^−1cm^−1 |  |  | 0.57 | 95,000 M^−1cm^−1 | 558 | 580 | 3,600 M^−1cm^−1 |  |  | 26 | 107 | 107 ± 9.6^m
